Source: PubChem BioAssay (NCI)
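Each compound was tested at five concentrations against cells in 96-well plates for 48 hours. At the TGI there is no net growth.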

Experiments:
Experiment in all cases: NCI-60 cell line screen, 48 h
UACC-257 melanoma = test system: UACC-257 melanoma
HCC-2998 colon = test system: HCC-2998 colon
HCT-15 colon = test system: HCT-15 colon
SNB-75 CNS = test system: SNB-75 CNS
SF-268 CNS = test system: SF-268 CNS
HOP-62 NSCLC = test system: HOP-62 NSCLC
M14 melanoma = test system: M14 melanoma
TK-10 renal = test system: TK-10 renal
EKVX NSCLC = test system: EKVX NSCLC
SW-620 colon = test system: SW-620 colon
UACC-62 melanoma = test system: UACC-62 melanoma
MDA-MB-435 = test system: MDA-MB-435
SK-OV-3 ovarian = test system: SK-OV-3 ovarian
OVCAR-3 ovarian = test system: OVCAR-3 ovarian
HCT-116 colon = test system: HCT-116 colon
CAKI-1 renal = test system: CAKI-1 renal
IGROV1 ovarian = test system: IGROV1 ovarian
PC-3 prostate = test system: PC-3 prostate
COLO 205 colon = test system: COLO 205 colon
MOLT-4 leukemia = test system: MOLT-4 leukemia
MCF7 breast = test system: MCF7 breast
SNB-19 CNS = test system: SNB-19 CNS
SK-MEL-28 melanoma = test system: SK-MEL-28 melanoma
HS 578T breast = test system: HS 578T breast
T-47D breast = test system: T-47D breast
SK-MEL-2 melanoma = test system: SK-MEL-2 melanoma
MDA-N = test system: MDA-N
RXF 393 renal = test system: RXF 393 renal
UO-31 renal = test system: UO-31 renal
NCI-H460 lung = test system: NCI-H460 lung
HOP-92 NSCLC = test system: HOP-92 NSCLC
A549 NSCLC = test system: A549 NSCLC
OVCAR-4 ovarian = test system: OVCAR-4 ovarian
SN12C renal = test system: SN12C renal
MDA-MB-231 breast = test system: MDA-MB-231 breast
NCI-H226 lung = test system: NCI-H226 lung
BT-549 breast = test system: BT-549 breast
U251 CNS = test system: U251 CNS
SK-MEL-5 melanoma = test system: SK-MEL-5 melanoma
HT29 colon = test system: HT29 colon
OVCAR-8 ovarian = test system: OVCAR-8 ovarian
SF-539 CNS = test system: SF-539 CNS
ACHN renal = test system: ACHN renal
LOX IMVI melanoma = test system: LOX IMVI melanoma
HL-60(TB) leukemia = test system: HL-60(TB) leukemia
NCI/ADR-RES ovarian = test system: NCI/ADR-RES ovarian
SR leukemia = test system: SR leukemia
786-0 renal = test system: 786-0 renal
NCI-H23 lung = test system: NCI-H23 lung
SF-295 CNS = test system: SF-295 CNS
DU-145 prostate = test system: DU-145 prostate
KM12 colon = test system: KM12 colon
A498 renal = test system: A498 renal
OVCAR-5 ovarian = test system: OVCAR-5 ovarian
RPMI-8226 leukemia = test system: RPMI-8226 leukemia
K-562 leukemia = test system: K-562 leukemia
CCRF-CEM leukemia = test system: CCRF-CEM leukemia
MALME-3M melanoma = test system: MALME-3M melanoma
NCI-H522 lung = test system: NCI-H522 lung

CC(C)OC(=O)c1ccc(NCC2=CC(=O)C=CC2=O)cc1Cl
TGI (UACC-257 melanoma): 33.9 µM | TGI (HCC-2998 colon): 32.8 µM | TGI (HCT-15 colon): 18.6 µM | TGI (SNB-75 CNS): > 70.3 µM | TGI (SF-268 CNS): 35.2 µM | TGI (HOP-62 NSCLC): > 100 µM | TGI (M14 melanoma): > 100 µM | TGI (TK-10 renal): 30 µM | TGI (EKVX NSCLC): 32.5 µM | TGI (SW-620 colon): > 53.5 µM | TGI (UACC-62 melanoma): 30.1 µM | TGI (MDA-MB-435): 35.1 µM | TGI (SK-OV-3 ovarian): > 100 µM | TGI (OVCAR-3 ovarian): > 45.9 µM | TGI (HCT-116 colon): > 53.2 µM | TGI (CAKI-1 renal): 6.19 µM | TGI (IGROV1 ovarian): 30.5 µM | TGI (PC-3 prostate): > 100 µM | TGI (COLO 205 colon): 21.3 µM | TGI (MOLT-4 leukemia): > 30.7 µM | TGI (MCF7 breast): > 60.1 µM | TGI (SNB-19 CNS): 44.2 µM | TGI (SK-MEL-28 melanoma): 56.5 µM | TGI (HS 578T breast): > 100 µM | TGI (T-47D breast): 7.85 µM | TGI (SK-MEL-2 melanoma): > 100 µM | TGI (MDA-N): 25.2 µM | TGI (RXF 393 renal): 47.5 µM | TGI (UO-31 renal): 13.9 µM | TGI (NCI-H460 lung): 41 µM | TGI (HOP-92 NSCLC): 14.4 µM | TGI (A549 NSCLC): > 100 µM | TGI (OVCAR-4 ovarian): 32 µM | TGI (SN12C renal): 44.3 µM | TGI (MDA-MB-231 breast): 47.6 µM | TGI (NCI-H226 lung): > 62.6 µM | TGI (BT-549 breast): 9.92 µM | TGI (U251 CNS): 54.9 µM | TGI (SK-MEL-5 melanoma): > 57.6 µM | TGI (HT29 colon): > 62.5 µM | TGI (OVCAR-8 ovarian): > 51.4 µM | TGI (SF-539 CNS): 37.5 µM | TGI (ACHN renal): 16 µM | TGI (LOX IMVI melanoma): 35.6 µM | TGI (HL-60(TB) leukemia): > 21.8 µM | TGI (NCI/ADR-RES ovarian): > 100 µM | TGI (SR leukemia): 8.22 µM | TGI (786-0 renal): > 48.3 µM | TGI (NCI-H23 lung): 33.1 µM | TGI (SF-295 CNS): 41.4 µM | TGI (DU-145 prostate): 42.3 µM | TGI (KM12 colon): 33.2 µM | TGI (A498 renal): 43.2 µM | TGI (OVCAR-5 ovarian): 70.1 µM

CC/C(Cl)=N\OC(=O)Nc1ccc(OC)cc1
TGI (RPMI-8226 leukemia): 5.59 µM | TGI (UACC-257 melanoma): 30.2 µM | TGI (HCC-2998 colon): 15.7 µM | TGI (HCT-15 colon): 3.12 µM | TGI (SNB-75 CNS): 19.3 µM | TGI (SF-268 CNS): 32.1 µM | TGI (HOP-62 NSCLC): 30.3 µM | TGI (M14 melanoma): 9.77 µM | TGI (TK-10 renal): 18.2 µM | TGI (EKVX NSCLC): 11.9 µM | TGI (UACC-62 melanoma): 24.6 µM | TGI (MDA-MB-435): 25.8 µM | TGI (SK-OV-3 ovarian): 31.7 µM | TGI (OVCAR-3 ovarian): 10.7 µM | TGI (HCT-116 colon): 12 µM | TGI (CAKI-1 renal): 3.07 µM | TGI (IGROV1 ovarian): 17.5 µM | TGI (PC-3 prostate): 29.5 µM | TGI (COLO 205 colon): 3.92 µM | TGI (MOLT-4 leukemia): 5.59 µM | TGI (MCF7 breast): 12.2 µM | TGI (K-562 leukemia): > 100 µM | TGI (SNB-19 CNS): 56.2 µM | TGI (SK-MEL-28 melanoma): 15.1 µM | TGI (HS 578T breast): 52 µM | TGI (CCRF-CEM leukemia): 4.97 µM | TGI (MALME-3M melanoma): 10.7 µM | TGI (T-47D breast): 13.8 µM | TGI (SK-MEL-2 melanoma): 33 µM | TGI (MDA-N): 11.3 µM | TGI (RXF 393 renal): 6.52 µM | TGI (UO-31 renal): 20.8 µM | TGI (NCI-H522 lung): 2.18 µM | TGI (NCI-H460 lung): 44.9 µM | TGI (HOP-92 NSCLC): 5.98 µM | TGI (A549 NSCLC): 32.6 µM | TGI (OVCAR-4 ovarian): 30.3 µM | TGI (SN12C renal): 11.4 µM | TGI (MDA-MB-231 breast): 17.3 µM | TGI (NCI-H226 lung): 28.3 µM | TGI (BT-549 breast): 3.17 µM | TGI (U251 CNS): > 57.2 µM | TGI (SK-MEL-5 melanoma): 14.6 µM | TGI (HT29 colon): 33.8 µM | TGI (OVCAR-8 ovarian): 37.4 µM | TGI (SF-539 CNS): 9.51 µM | TGI (ACHN renal): 3.5 µM | TGI (LOX IMVI melanoma): 4.89 µM | TGI (HL-60(TB) leukemia): 4.36 µM | TGI (NCI/ADR-RES ovarian): 15 µM | TGI (786-0 renal): 3.24 µM | TGI (NCI-H23 lung): 38.6 µM | TGI (SF-295 CNS): 31.1 µM | TGI (DU-145 prostate): 31.3 µM | TGI (KM12 colon): 31.6 µM | TGI (A498 renal): 37 µM | TGI (OVCAR-5 ovarian): 11.3 µM

O=C1NN=C(c2ccc(Cl)cc2)CC1C1C(=O)N(c2ccccc2)N=C1c1ccccc1 (stereo unspecified)
TGI (RPMI-8226 leukemia): > 100 µM | TGI (HCC-2998 colon): 91.7 µM | TGI (HCT-15 colon): > 100 µM | TGI (SNB-75 CNS): > 100 µM | TGI (SF-268 CNS): > 100 µM | TGI (HOP-62 NSCLC): > 100 µM | TGI (M14 melanoma): > 100 µM | TGI (TK-10 renal): > 100 µM | TGI (EKVX NSCLC): > 100 µM | TGI (SW-620 colon): > 100 µM | TGI (UACC-62 melanoma): 72.8 µM | TGI (MDA-MB-435): 77.4 µM | TGI (SK-OV-3 ovarian): > 100 µM | TGI (OVCAR-3 ovarian): 72.9 µM | TGI (HCT-116 colon): 44.8 µM | TGI (IGROV1 ovarian): > 100 µM | TGI (PC-3 prostate): 72.3 µM | TGI (COLO 205 colon): > 100 µM | TGI (MOLT-4 leukemia): > 100 µM | TGI (MCF7 breast): > 100 µM | TGI (K-562 leukemia): > 100 µM | TGI (SNB-19 CNS): > 100 µM | TGI (SK-MEL-28 melanoma): > 100 µM | TGI (HS 578T breast): 93.9 µM | TGI (CCRF-CEM leukemia): 76.3 µM | TGI (MALME-3M melanoma): > 100 µM | TGI (T-47D breast): > 100 µM | TGI (SK-MEL-2 melanoma): 78.7 µM | TGI (MDA-N): > 100 µM | TGI (RXF 393 renal): 70.9 µM | TGI (UO-31 renal): 56.6 µM | TGI (NCI-H522 lung): 65.2 µM | TGI (NCI-H460 lung): 80.4 µM | TGI (A549 NSCLC): > 100 µM | TGI (OVCAR-4 ovarian): 86.5 µM | TGI (SN12C renal): > 100 µM | TGI (MDA-MB-231 breast): > 100 µM | TGI (NCI-H226 lung): 91.8 µM | TGI (BT-549 breast): 54.4 µM | TGI (U251 CNS): 82.9 µM | TGI (HT29 colon): > 100 µM | TGI (OVCAR-8 ovarian): > 100 µM | TGI (SF-539 CNS): 66.8 µM | TGI (ACHN renal): > 100 µM | TGI (LOX IMVI melanoma): 45.9 µM | TGI (HL-60(TB) leukemia): > 100 µM | TGI (NCI/ADR-RES ovarian): > 100 µM | TGI (SR leukemia): > 100 µM | TGI (786-0 renal): 63.2 µM | TGI (NCI-H23 lung): 62.8 µM | TGI (SF-295 CNS): > 100 µM | TGI (DU-145 prostate): > 100 µM | TGI (KM12 colon): > 100 µM | TGI (A498 renal): 84.4 µM | TGI (OVCAR-5 ovarian): 80.7 µM
